Counter-ions that a name gives are not always drawn. Like-named read-outs stand apart in the source and are kept apart here.
What was measured:
[1] = test system: RF strain of HIV (CEM-SS cells); test: Cell Culture Anti-HIV Activity (cell viability, formazan); type: cell-based; settings: Human immunodeficiency virus 1, CEM-SS, 144 h, CEM-SS cells, RF strain of HIV, multiplicity of infection 0.04, 6 days at 37° C., 450 nm; read-out: HIV (CEM Cells) IC50
How it was run: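 CEM-SS cells (5000/well) infected with HIV RF at MOI 0.04, exposed to half-log serial compound dilutions, incubated 6 days at 37° C. Viability read by tetrazolium reduction to formazan, absorbance 450 nm. IC50 is the concentration raising formazan in infected cells to 50% of uninfected, drug-free cells.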

HIV protease = target: T1, HIV protease (Human immunodeficiency virus type 1 group M subtype B, UniProt P04585); test: HIV Protease Assay; type: biochemical
T1 construct: and purified protease
How it was run: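 Purified protease cleaved 450 μM octapeptide substrate in 50 mM sodium acetate pH 5.5 with 100 μg/ml BSA for 30 minutes at 37° C; product analyzed by reverse-phase HPLC at UV220 after H3PO4 quench. Inhibitors tested at final 10 μM with 4% DMSO.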

[2] = pH 5.5, 10 μM inhibitor, 4% DMSO, 450 μM substrate, pH 5.5, 30 minutes at 37° C., RP-HPLC, read-out: HIV Protease % Inhibition at 10 μM

| Structure (SMILES) | inhibition at 10 µM (HIV protease; pH 5.5, read-out: HIV Protease % Inhibition at 10 μM) | HIV Protease % Inhibition at 10 μM (HIV protease; 10 μM inhibitor, 4% DMSO, 450 μM substrate, pH 5.5, 30 minutes at 37° C., RP-HPLC) | inhibition at 10 µM (HIV protease; [2]) | IC50 [1] |
| --- | --- | --- | --- | --- |
| CC(C)(C)OC(=O)N[C@@H](Cc1ccccc1)[C@H](O)CNC[C@@H](O)[C@H](Cc1c[nH]c2ccccc12)NC(=O)OCc1ccccc1 [Compound 22, [1S-[1R*,2S*(2S*,3R*)]]-[3-[[3-[[(1,1-Dimethylethoxy)carbonyl]amino]-2-hydroxy-4-ehenylbutyl]amino]-2-hydroxy-1-[(1H-indol-3-yl)methyl]propyl]carbamic acid, phenylmethyl ester] | – | – | 90% | > 1.8 µM |
| CC(O)COc1ccc(C[C@H](NC(=O)OC(C)(C)C)[C@H](O)CNC[C@@H](O)[C@H](Cc2ccccc2)NC(=O)OC(C)(C)C)cc1 (stereo partly drawn) [Compound 306, [1S-[1R*, 2S* (2S*, 3R*)]-[3-[[(1,1-Dimethylethoxy)carbonyl]amino]-2-hydroxy-4-[4-(2-hydroxypropoxy)phenyl]butyl]amino]-2-hydroxy-1-(phenylmethyl)propyl]carbamic acid, 1.1-dimethylethyl ester] | – | – | 100% | 0.06 µM |
| CC(C)(C)OC(=O)N[C@@H](Cc1ccccc1)[C@H](O)CNC[C@@H](O)[C@H](Cc1ccc2ncccc2c1)NC(=O)OC(C)(C)C [Compound 31, [1S-[1R*,2S*(2S*,3R*)]]-[3-[[3-[[(1,1-Dimethylethoxy)-carbonyl]amino]-2-hydroxy-4-phenylbutyl]amino-2-hydroxy-1-(6-quinolinylmethyl)propyl]carbamic acid, 1,1-dimethylethyl ester] | – | – | 100% | 0.03 µM |
| CC(C)(C)OC(=O)N[C@@H](Cc1ccccc1)[C@H](O)CNC[C@@H](O)[C@H](Cc1ccccc1)NC(=O)OC(C)(C)CC#CCc1ccccc1 [Compound 167, [1S-(1R*,2S*))]-[Iminobis[2-hydroxy-1-(phenylmethyl)-3,1-propanediyl]biscarbamic acid, 1,1-dimethylethyl 1,1]-dimethyl-5-phenyl-3-pentynyl ester] | – | – | 97% | > 1.8 µM |
| CC(C)(C)OC(=O)N[C@@H](Cc1ccccc1)[C@H](O)CNC[C@@H](O)[C@H](CCc1ccccc1)NC(=O)OCc1ccccc1 [Compound 24, [1S-[1R*,2S*((2S*,3R*)]]-[3-[[3-[[(1,1-Dimethylethoxy)carbonyl]amino-2-hydroxy-4-phenylbutyl]amino]-2-hydroxy-1-(2-phenylethyl)propyl]carbamic acid, phenylmethyl ester] | – | – | 78% | 4.5 µM |
| CC(C)(C)OC(=O)N[C@@H](Cc1ccccc1)[C@H](O)CNC[C@@H](O)[C@H](Cc1ccc(OCCCc2nc3ccccc3o2)cc1)NC(=O)OC(C)(C)C [Compound 244, [1S-[1R*,2S*(2S*,3R*)]]-[3-[[3-[[(1,1-Dimethylethoxy)carbonyl]amino]-2-hydroxy-4-[4-[3-[(2-benzoxazolyl)-propoxy]phenyl]butyl]amino]-2-hydroxy-1-(phenylmethyl)propyl]carbamic acid, 1,1-dimethylethyl ester] | – | – | 100% | 1.5 µM |
| CC(C)[C@H](NC(=O)c1ccc2ccccc2n1)C(=O)N[C@@H](Cc1ccccc1)[C@H](O)CNC[C@@H](O)[C@H](Cc1ccccc1)NC(=O)OC(C)(C)C [Compound 80, [S-[1R*,2S*(2S*,3R*)]]-N-[3-[[3-[[(1,1-Dimethylethoxy)carbonyl]amino]-2-hydroxy-4-phenylbutyl]amino]-2-hydroxy-1-(phenylmethyl)propyl]-N2-(2-quinolinylcarbonyl)-L-valinamide] | – | – | 98% | 0.3 µM |
| CC(C)[C@H](NC(=O)CCc1nc2ccccc2[nH]1)C(=O)N[C@@H](Cc1ccccc1)[C@H](O)CNC[C@@H](O)[C@H](Cc1ccccc1)NC(=O)OC(C)(C)C [Compound 103, [S-[1R*,2S*(2S*,3R*)]-N^2-[3-(1H-Benzimidazol-2-yl)-1-oxo-propyl]-N-[3-[[3-[[(1,1-di-methylethoxy)carbonyl]amino-4-phenylbutyl]amino]-2-hydroxy-1-(phenylmethyl)propyl]-L-valinamide] | – | – | 98% | 1.7 µM |
| CC(C)[C@H](NC(=O)OCc1nc2ccccc2o1)C(=O)N[C@@H](Cc1ccccc1)[C@H](O)CNC[C@@H](O)[C@H](Cc1ccccc1)NC(=O)OC(C)(C)C (relative stereo) [Compound 171, S-[1R*,2S*(2S*,3R*)]-N^2-[[(2-Benzo-xazolyl)methoxy]carbonyl]-N-[3-[[3-[[(1,1-dimethylethoxy)carbonyl]amino]-2-hydroxy-4-phenylbutyl]amino]-2-hydroxy-1-(phenylmethyl)-propyl]-L-valinamide] | – | – | 99% | 0.05 µM |
| CC(C)[C@H](NC(=O)[C@@H](N)Cc1ccccc1)C(=O)N[C@@H](Cc1ccccc1)[C@H](O)CNC[C@@H](O)[C@H](Cc1ccccc1)NC(=O)OC(C)(C)C [Compound 84, [S-[1R*,2S*(2S*,3R*)]-N-[3-[[3-[[(1,1-Dimethylethoxy)carbonyl]amino]-2-hydroxy-4-phenylbutyl]amino]-2-hydroxy-1-(phenylmethyl)propyl)-L-valyl]-L-phenylalanamide, fumarate (2:3) salt] | – | – | 99% | 1.2 µM |

Second part, led by results:

| inhibition at 10 µM (HIV protease; pH 5.5, read-out: HIV Protease % Inhibition at 10 μM) | HIV Protease % Inhibition at 10 μM (HIV protease; 10 μM inhibitor, 4% DMSO, 450 μM substrate, pH 5.5, 30 minutes at 37° C., RP-HPLC) | inhibition at 10 µM (HIV protease; [2]) | Structure (SMILES) | IC50 [1] |
| --- | --- | --- | --- | --- |
| 78% | – | – | CC(C)(C)CC(=O)N[C@@H](Cc1ccccc1)[C@H](O)CNC[C@@H](O)[C@H](Cc1ccccc1)NC(=O)OC(C)(C)C [Compound 60, [1S-[1R*,2S*(2S*,3R*)]]-[3 [[3-[(3,3-Dimethyl-1-oxybutyl)amino]-2-hydroxy-4-phenylbutyl]amino]-2-hydroxy-1-(phenylmethyl)-propyl]carbamic acid, 1,1-dimethylethyl ester] | 1.2 µM |
| – | 97% | – | CC(C)(C)OC(=O)N[C@@H](Cc1ccccc1)[C@H](O)CNC[C@@H](O)[C@H](Cc1ccccc1)NC(=O)C1NC(=O)CC1(C)C (single isomer, unassigned) [Compound 267, [1S-[1R*,2S*(2S*,3R*)]]-[3-[[3-[[(3,3-Dimethyl-5-oxo-2-pyrrolidinyl)carbonyl]amino]-2-hydroxy-4-phenylbutyl]amino]-2-hydroxy-l-(phenylmethyl)propyl]carbamic acid, 1,1-dimethylethyl ester] | 0.18 µM |
| – | – | 92% | CC(C)(C)OC(=O)N[C@@H](Cc1ccccc1)[C@H](O)CNC[C@@H](O)[C@H](Cc1ccccc1)NC(=O)C1(O)CCOC1 (stereo partly drawn) [Compound 330, [1S-[1R*,2S*(2S*,3R*)]]-[2-hydroxy-3-[[2-hydroxy-3-[[(tetrahydro-3-hydroxy-3-furanyl)carbonyl]amino]-4-phenylbutyl]amino]-1-(phenylmethyl)propyl]carbamic acid, 1,1-dimethylethyl ester] | 0.85 µM |
| – | – | 99% | CC(C)(C)OC(=O)N[C@@H](Cc1ccccc1)[C@H](O)CNC[C@@H](O)[C@H](Cc1ccccc1)NC(=O)[C@@H](NC(=O)CNC=O)C(C)(C)C (relative stereo) [Compound 286, [1R*,2S*(2S*,3R*)]-N-[3-[[(1,1-Dimethylethoxy)carbonyl]amino]-2-hydroxy-4-phenylbutyl]amino]-2-hydroxy-1-(phenylmethyl)propyl]-N^2-(N-formylglycyl)-3-methyl-L-valinamide] | 5 µM |
| – | – | 98% | CC(C)(C)OC(=O)N[C@@H](Cc1ccccc1)[C@H](O)CNC[C@@H](O)[C@H](Cc1ccccc1)NC(=O)C(=O)C(C)(C)C [Compound 213, [1S-[1R*,2S*(2S*,3R*)]]-[3-[[3-[(3,3-Dimethyl-1,2-dioxobutyl)amino]-2-hydroxy-4-phenylbutyl]amino]-2-hydroxy-1-(phenylmethyl)propyl]carbamic acid, 1,1-dimethylethyl ester] | 0.17 µM |
| – | – | 97% | CC(C)(C)OC(=O)N[C@@H](Cc1ccccc1)[C@H](O)CNC[C@@H](O)[C@H](Cc1ccccc1)NC(=O)C(O)C(C)(C)C (stereo partly shown) [Compound 214] | 0.05 µM |
| – | – | 97% | CC(C)(C)OC(=O)N[C@@H](Cc1ccccc1)[C@H](O)CNC[C@@H](O)[C@H](Cc1ccccc1)NC(=O)OC(C)(C)CCO [Compound 169, [1S-(1R*,2S*)]-Iminobis[2-hydroxy-1-(phenylmethyl)-3,1-propanediyl]]biscarbamic acid, 1,1-dimethylethyl-3-hydroxy-1,1-dimethylpropyl ester] | 0.2 µM |
| – | – | 99% | CC(C)(C)OC(=O)N[C@@H](Cc1ccccc1)[C@H](O)CNC[C@@H](O)[C@H](Cc1ccccc1)NC(=O)SC(C)(C)C [Compound 184, [1S-[1R*,2S*(2S*,3R*)]]-[3-[[3-[[[(1 1-Dimethylethyl)thio)carbonyl]amino]-2-hydroxy-4-phenylbutyl]amino]-2-hydroxy-1-(phenylmethyl)-propyl]carbamic acid, 1,1-dimethylethyl ester] | 1.3 µM |
| – | – | 81% | CC(C)(C)NC(=O)N[C@@H](Cc1ccccc1)[C@H](O)CNC[C@@H](O)[C@H](Cc1ccccc1)NC(=O)NC(C)(C)C [Compound 47, [R-(R*,S*)]-N,N"-[Iminobis[2-hydroxy-1-(phenylmethyl)-3,1-propanediyl]]-bis[N'-(1,1-dimethylethyl)urea]] | 1.1 µM |
| – | – | 99% | CC(C)(C)OC(=O)N[C@@H](Cc1ccccc1)[C@H](O)CNC[C@@H](O)[C@H](Cc1ccccc1)NC(=O)OC1(C)CCC1 [Compound 160, [1S-(1R*,2S*)]-[Iminobis[2-hydroxy-1-(phenylmethyl)-3,1-propanediyl]]bis[carbamic acid], 1,1-dimethylethyl-1-methylcyclobutyl ester] | 0.08 µM |
